For the experiment, the target named is T1, SHP2 protein (Homo sapiens, UniProt Q06124).
T1 sequence (Q06124 1-593): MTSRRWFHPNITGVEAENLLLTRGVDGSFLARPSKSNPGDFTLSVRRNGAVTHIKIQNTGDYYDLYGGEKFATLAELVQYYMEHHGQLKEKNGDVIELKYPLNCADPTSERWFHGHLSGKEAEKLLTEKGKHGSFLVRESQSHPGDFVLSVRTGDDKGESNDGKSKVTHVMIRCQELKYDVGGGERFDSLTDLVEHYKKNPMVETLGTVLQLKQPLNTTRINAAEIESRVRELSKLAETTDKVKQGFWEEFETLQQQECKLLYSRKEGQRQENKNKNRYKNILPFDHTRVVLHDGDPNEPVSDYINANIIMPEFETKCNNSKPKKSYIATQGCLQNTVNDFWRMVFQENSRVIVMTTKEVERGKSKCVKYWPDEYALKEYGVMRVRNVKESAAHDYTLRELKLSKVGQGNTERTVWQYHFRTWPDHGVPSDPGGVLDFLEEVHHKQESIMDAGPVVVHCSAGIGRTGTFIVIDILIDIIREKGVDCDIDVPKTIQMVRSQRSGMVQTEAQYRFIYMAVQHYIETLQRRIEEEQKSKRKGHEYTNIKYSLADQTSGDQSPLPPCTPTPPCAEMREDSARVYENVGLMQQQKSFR
Description: Measurement of SHP2 protein degradation in NCI-H358 cells (western blotting). Format: cell-based. Also on record: endogenous in cells; host or cells: NCI-H358. The settings on record: harvested after 24 hours. The method, then:
H358 cells were treated with the synthesized Example compounds, and the amount of SHP2 protein present in the cells was measured using western blotting detection. The protocol for the experiment using H358 cells is as follows.
[Culture]H358 cells were resuspended in RPMI1640 with 25 mM HEPES (Hyclone, SH30255.01), 10% FBS (Hyclone, SV30207.02), 1% Penicillin-streptomycin (Welgene, LS 202-02) media, seeded at 3×10^5/mL in 12-well plates (1 mL each), and cultured for 24 hours.
[Compound treatment] Before compound treatment, the media was changed to 1 mL media, and then the 12-well plate was treated as follows. The 10 mM stock dissolved in DMSO was serially diluted 1/100 or 1/10 with the media, and the compound was treated to the cells at a final concentration of 0.001, 0.01, and 0.1 μM, and harvested after 24 hours. For the negative control group, DMSO diluted 1/1000 in the media was added (1 μL DMSO+999 μL media).
[Harvest]24 hours after compound treatment, each well was scraped with a cell lifter (SPL, 90040), pipetted with a 1 mL pipette, collected in a 1.5 mL microtube, and centrifuged (500 g, 5 min, 4° C.). The supernatant was removed, washed with PBS, and centrifuged again (500 g, 5 min, 4° C.). Afterwards, the supernatant was removed to prepare a pellet.
[Cell lysis and sample preparation] Lysis buffer was prepared as follows. RIPA buffer (Biosesang, RC2038-050-00)+0.5 mM PMSF (SIGMA, P7626)+1× Protease/Phosphatase Inhibitor (Cell signaling, 5872S) were added at 30 μL per tube, vortexed, and incubated on ice for 30 minutes. Afterwards, sonication was performed (10 sec pulse, 30 sec rest, 5 cycles, 70% amplification) and centrifugation was performed (15,000 g, 15 min, 4° C.), and only the supernatant was transferred to a microtube. A 96-well plate was diluted to 1/4 with 7.5 μL of RIPA buffer and 2.5 μL of sample, and 200 μL each was added after mixing A and B of the BCA Protein Assay Kit (iNtRON, 21071) in a ratio of 50:1. The plate was incubated at 37° C. for 30 minutes and left at room temperature for 10 minutes. After shaking for 10 seconds with a SYNERGY H1 microplate reader from BioTek, the absorbance was measured at 562 nm. The protein was quantified using the measured value to make a sample, which was then incubated at 70° C. for 10 minutes. The sample buffer used here was a mixture of NuPAGE or Bolt 4× sample buffer (Invitrogen) and each 10× sample reducing agent depending on the gel to be used, and RIPA buffer was used for protein dilution.
[Western blotting detection] Equal amounts of samples were loaded onto NuPAGE or Bolt Bis-tris 4-12% gradient gel and run (200 V, 35 min). This was transferred to […] NC membrane using Trans-blot Turbo (BIO-RAD) (1.3 A constant, 25 V limit, 15 min), and blocked with 5% skim milk/0.2% TBST for 45 min at room temperature. Anti-SHPTP2 Mouse (1:1,000 in 5% skim milk/0.2% TBST, size: 70 kDa, Santa cruz sc-7384) and Anti-GAPDH Rabbit (1:2,000 in 5% skim milk or 5% BSA/0.2% TBST, size: 37 kDa, CST #2118) were added and incubated overnight at 4° C. After washing three times with 0.2% TBST washing buffer for 5 minutes each, secondary antibodies Anti-Mouse IgG (1:5,000 in 5% skim milk/0.2% TBST, CST) and IRDye® 680RD Goat anti-Rabbit IgG Secondary Antibody (1:10,000 in 5% skim milk/0.2% TBST, LI-COR 926-68071) were added, and incubated on a rocker at room temperature for 45 minutes. The resultants were washed five times with 0.2% TBST washing buffer for 5 minutes each, and detected using LI-COR's Odyssey. GAPDH was detected with a 700 nm channel, and SHPTP2 was detected using SuperSignal West Pico PLUS Chemiluminescent Substrate.
A general note: In western blotting, separated proteins are transferred to a membrane and probed.

On to `CC(=O)N[C@H](C(=O)N1C[C@H](O)C[C@H]1C(=O)NCc1ccc(-c2scnc2C)cc1O[C@H]1CC[C@H](C(=O)N2CC(Nc3nccc(Sc4cnc(N5CCC(C)(CN)CC5)c(CO)n4)c3Cl)C2)CC1)C(C)(C)C` [Example 44, (2S,4R)-1-((S)-2-acetamido-3,3-dimethylbutanoyl)-N-(2-(((1r,4S)-4-(3-((4-((5-(4-(aminomethyl)-4-methylpiperidin-1-yl)-6-(hydroxymethyl)pyrazin-2-yl)thio)-3-chloropyridin-2-yl)amino)azetidine-1-carbonyl)cyclohexyl)oxy)-4-(4-methylthiazol-5-yl)benzyl)-4-hydroxypyrrolidine-2-carboxamide], for which the SHP2% degradation was 88.5% (0.01 μM) and 99.1% (0.1 μM).

In the case of `CC(=O)N[C@H](C(=O)N1C[C@H](O)C[C@H]1C(=O)NCc1ccc(-c2scnc2C)cc1O[C@H]1CC[C@H](C(=O)N2CCC(Nc3nccc(Sc4cnc(N5CCC(C)(CN)CC5)c(CO)n4)c3Cl)CC2)CC1)C(C)(C)C` [Example 45, (2S,4R)-1-((S)-2-acetamido-3,3-dimethylbutanoyl)-N-(2-(((1r,4S)-4-(4-((4-((5-(4-(aminomethyl)-4-methylpiperidin-1-yl)-6-(hydroxymethyl)pyrazin-2-yl)thio)-3-chloropyridin-2-yl)amino)piperidine-1-carbonyl)cyclohexyl)oxy)-4-(4-methylthiazol-5-yl)benzyl)-4-hydroxypyrrolidine-2-carboxamide], the SHP2% degradation came to 97.0% (0.01 μM) and 99.4% (0.1 μM).

With `CC(=O)N[C@H](C(=O)N1C[C@H](O)C[C@H]1C(=O)NCc1ccc(-c2scnc2C)cc1O[C@H]1CC[C@H](C(=O)N2CCC(c3cccc(Sc4cnc(N5CCC(C)(CN)CC5)cn4)c3Cl)CC2)CC1)C(C)(C)C` [Example 46, (2S,4R)-1-((S)-2-acetamido-3,3-dimethylbutanoyl)-N-(2-(((1r,4S)-4-(4-(3-((5-(4-(aminomethyl)-4-methylpiperidin-1-yl)pyrazin-2-yl)thio)-2-chlorophenyl)piperidine-1-carbonyl)cyclohexyl)oxy)-4-(4-methylthiazol-5-yl)benzyl)-4-hydroxypyrrolidine-2-carboxamide], the SHP2% degradation is, setting by setting: (0.01 μM) 33.8%; (0.1 μM) 93.2%.

As for `CC(=O)N[C@H](C(=O)N1C[C@H](O)C[C@H]1C(=O)NCc1ccc(-c2scnc2C)cc1O[C@H]1CC[C@H](C(=O)N2CCC(c3nccc(Sc4cnc(N5CCC(C)(CN)CC5)cn4)c3Cl)CC2)CC1)C(C)(C)C` [Example 47, (2S,4R)-1-((S)-2-acetamido-3,3-dimethylbutanoyl)-N-(2-(((1r,4S)-4-(4-(4-((5-(4-(aminomethyl)-4-methylpiperidin-1-yl)pyrazin-2-yl)thio)-3-chloropyridin-2-yl)piperidine-1-carbonyl)cyclohexyl)oxy)-4-(4-methylthiazol-5-yl)benzyl)-4-hydroxypyrrolidine-2-carboxamide], the SHP2% degradation is reported as −34.6% (0.01 μM) and 50.6% (0.1 μM).

Turning to `CC(=O)N[C@H](C(=O)N1C[C@H](O)C[C@H]1C(=O)N[C@@H](C)c1ccc(-c2scnc2C)cc1O[C@H]1CC[C@H](C(=O)N2CC(Nc3cccc(Sc4cnc(N5CCC(C)(CN)CC5)cn4)c3Cl)C2)CC1)C(C)(C)C` [Example 48, (2S,4R)-1-((S)-2-acetamido-3,3-dimethylbutanoyl)-N—((S)-1-(2-(((1R,4S)-4-(3-((3-((5-(4-(aminomethyl)-4-methylpiperidin-1-yl)pyrazin-2-yl)thio)-2-chlorophenyl)amino)azetidine-1-carbonyl)cyclohexyl)oxy)-4-(4-methylthiazol-5-yl)phenyl)ethyl)-4-hydroxypyrrolidine-2-carboxamide], the SHP2% degradation came out at 88.8% (0.01 μM) and 98.3% (0.1 μM).

`CC(=O)N[C@H](C(=O)N1C[C@H](O)C[C@H]1C(=O)N[C@@H](C)c1ccc(-c2scnc2C)cc1O[C@H]1CC[C@H](C(=O)N2CC(Nc3nccc(Sc4cnc(N5CCC(C)(CN)CC5)cn4)c3Cl)C2)CC1)C(C)(C)C` [Example 49, (2S,4R)-1-((S)-2-acetamido-3,3-dimethylbutanoyl)-N—((S)-1-(2-(((1R,4S)-4-(3-((4-((5-(4-(aminomethyl)-4-methylpiperidin-1-yl)pyrazin-2-yl)thio)-3-chloropyridin-2-yl)amino)azetidine-1-carbonyl)cyclohexyl)oxy)-4-(4-methylthiazol-5-yl)phenyl)ethyl)-4-hydroxypyrrolidine-2-carboxamide]: the SHP2% degradation was 87.1% (0.01 μM) and 99.4% (0.1 μM).

For `Cc1ncsc1-c1ccc(CNC(=O)[C@@H]2C[C@@H](O)CN2C(=O)[C@@H](NC(=O)C2(F)CC2)C(C)(C)C)c(OC2CCN(C(=O)C3CN(c4nccc(Sc5cnc(N6CCC(C)(CN)CC6)cn5)c4Cl)C3)CC2)c1` [Example 63, (2S,4R)—N-(2-((1-(1-(4-((5-(4-(aminomethyl)-4-methylpiperidin-1-yl)pyrazin-2-yl)thio)-3-chloropyridin-2-yl)azetidine-3-carbonyl)piperidin-4-yl)oxy)-4-(4-methylthiazol-5-yl)benzyl)-1-((S)-2-(1-fluorocyclopropane-1-carboxamido)-3,3-dimethylbutanoyl)-4-hydroxypyrrolidine-2-carboxamide], the SHP2% degradation (0.01 μM) amounted to 53.0% and the SHP2% degradation (0.1 μM) worked out at 99.0%.

As to `Cc1ncsc1-c1ccc(CNC(=O)[C@@H]2C[C@@H](O)CN2C(=O)[C@@H](NC(=O)C2(F)CC2)C(C)(C)C)c(OC2CCN(C(=O)CC3CN(c4nccc(Sc5cnc(N6CCC(C)(CN)CC6)cn5)c4Cl)C3)CC2)c1` [Example 64, (2S,4R)—N-(2-((1-(2-(1-(4-((5-(4-(aminomethyl)-4-methylpiperidin-1-yl)pyrazin-2-yl)thio)-3-chloropyridin-2-yl)azetidin-3-yl)acetyl)piperidin-4-yl)oxy)-4-(4-methylthiazol-5-yl)benzyl)-1-((S)-2-(1-fluorocyclopropane-1-carboxamido)-3,3-dimethylbutanoyl)-4-hydroxypyrrolidine-2-carboxamide], the SHP2% degradation runs as follows: (0.01 μM) 87.9%; (0.1 μM) 99.8%.

Values taken from patent US20260144788A1, “COMPOUND FOR SHP2 PROTEIN DEGRADATION AND MEDICAL USES THEREOF” (UBIX THERAPEUTICS, INC., priority 2022, published 2026).
